Laboratory results published in patent publication US11987588B2, “Modulators of the beta-3 adrenergic receptor useful for the treatment or prevention of heart failure and disorders related thereto” (Arena Pharmaceuticals, Inc., priority 2017, dated 2024).

Biological target: Beta-3 Adrenergic Receptor (Homo sapiens (Human), UniProt P13945)
Experiment: Homogeneous Time-Resolved Fluorescence (HTRF) cAMP antagonist assay, IC50 determination
Assay type: cell-based
Details: CHO-K1 cells stably expressing recombinant receptor, isoproterenol at EC90
Summary of the method: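 In this functional readout, recombinant CHO-K1 cells received compound, then isoproterenol at its EC90. After 1 h at room temperature, cAMP levels were determined by HTRF using an on-plate standard curve, and IC50 values were fitted.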

Sequence of Beta-3 Adrenergic Receptor (P13945 whole entry, species assumed): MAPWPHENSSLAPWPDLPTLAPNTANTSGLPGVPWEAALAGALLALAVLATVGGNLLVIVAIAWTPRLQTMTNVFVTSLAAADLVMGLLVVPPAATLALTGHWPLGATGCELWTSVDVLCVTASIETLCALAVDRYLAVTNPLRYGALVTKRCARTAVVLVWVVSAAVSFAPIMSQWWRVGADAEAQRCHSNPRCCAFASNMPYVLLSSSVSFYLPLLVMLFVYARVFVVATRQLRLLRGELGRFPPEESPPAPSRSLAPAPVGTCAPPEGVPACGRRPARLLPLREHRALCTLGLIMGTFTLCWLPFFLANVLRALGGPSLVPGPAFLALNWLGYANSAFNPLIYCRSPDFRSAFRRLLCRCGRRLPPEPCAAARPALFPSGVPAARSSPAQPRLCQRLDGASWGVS

| SMILES | IC50 |
| --- | --- |
| O=S(=O)(NCCF)c1cccc(OC[C@@H](O)CN[C@H]2COC3(CCN(S(=O)(=O)c4ccc5ncccc5c4)CC3)C2)c1 [Compound 393, N-(2-fluoroethyl)-3-((S)-2-hydroxy-3-((R)-8-(quinolin-6-ylsulfonyl)-1-oxa-8-azaspiro[4.5]decan-3-ylamino)propoxy)benzenesulfonamide] | 141 nM |
| O=S(=O)(NCCF)c1cccc(OC[C@@H](O)CN[C@H]2COC3(CCN(S(=O)(=O)c4cnc5ccccc5c4)CC3)C2)c1 [Compound 394, N-(2-fluoroethyl)-3-((S)-2-hydroxy-3-((R)-8-(quinolin-3-ylsulfonyl)-1-oxa-8-azaspiro[4.5]decan-3-ylamino)propoxy)benzenesulfonamide] | 46.9 nM |
| CNS(=O)(=O)c1cccc(OC[C@@H](O)CNC2COC3(CCN(S(=O)(=O)c4ccc(O)nc4)CC3)C2)c1 (stereo partly drawn) [Compound 395, 3-((2S)-2-hydroxy-3-(8-(6-hydroxypyridin-3-ylsulfonyl)-1-oxa-8-azaspiro[4.5]decan-3-ylamino)propoxy)-N-methylbenzenesulfonamide] | 206 nM |
| CNS(=O)(=O)c1cccc(OC[C@@H](O)CNC2COC3(CCN(S(=O)(=O)c4cc(OC)cnc4C)CC3)C2)c1 (stereo partly drawn) [Compound 397, 3-((2S)-2-hydroxy-3-(8-(5-methoxy-2-methylpyridin-3-ylsulfonyl)-1-oxa-8-azaspiro[4.5]decan-3-ylamino)propoxy)-N-methylbenzenesulfonamide] | 115 nM |
| CNS(=O)(=O)c1cccc(OC[C@@H](O)CNC2COC3(CCN(S(=O)(=O)c4ccccc4OC)CC3)C2)c1 (stereo partly drawn) [Compound 398, 3-((2S)-2-hydroxy-3-(8-(2-methoxyphenylsulfonyl)-1-oxa-8-azaspiro[4.5]decan-3-ylamino)propoxy)-N-methylbenzenesulfonamide] | 51.3 nM |
| CNS(=O)(=O)c1cccc(OC[C@@H](O)CNC2COC3(CCN(S(=O)(=O)c4cc5c(nc4Cl)OCCN5C)CC3)C2)c1 (stereo partly drawn) [Compound 400, 3-((2S)-3-(8-(6-chloro-1-methyl-2,3-dihydro-1H-pyrido[2,3-b][1,4]oxazin-7-ylsulfonyl)-1-oxa-8-azaspiro[4.5]decan-3-ylamino)-2-hydroxypropoxy)-N-methylbenzenesulfonamide] | 33.1 nM |
| CNS(=O)(=O)c1cccc(OC[C@@H](O)CNC2COC3(CCN(S(=O)(=O)c4ccc(-c5ccc(CN)cc5)cc4OC(F)(F)F)CC3)C2)c1 (stereo partly drawn) [Compound 403, 3-((2S)-3-(8-(4′-(aminomethyl)-3-(trifluoromethoxy)biphenyl-4-ylsulfonyl)-1-oxa-8-azaspiro[4.5]decan-3-ylamino)-2-hydroxypropoxy)-N-methylbenzenesulfonamide] | 80.6 nM |
| CNS(=O)(=O)c1cccc(OC[C@@H](O)CN[C@H]2COC3(CCN(S(=O)(=O)c4ccc(-c5ccc(CN(C)C)cc5)cc4)CC3)C2)c1 [Compound 405, 3-((S)-3-((R)-8-(4′-((dimethylamino)methyl)biphenyl-4-ylsulfonyl)-1-oxa-8-azaspiro[4.5]decan-3-ylamino)-2-hydroxypropoxy)-N-methylbenzenesulfonamide] | 51.8 nM |
| CNS(=O)(=O)c1cccc(OC[C@@H](O)CNC2COC3(CCN(S(=O)(=O)c4ccc(N5CCOCC5)nc4)CC3)C2)c1 (stereo partly drawn) [Compound 406, 3-((2S)-2-hydroxy-3-(8-(6-morpholinopyridin-3-ylsulfonyl)-1-oxa-8-azaspiro[4.5]decan-3-ylamino)propoxy)-N-methylbenzenesulfonamide] | 31.1 nM |
| CNS(=O)(=O)c1cccc(OC[C@@H](O)CNC2COC3(CCN(S(=O)(=O)c4ccc(-c5ccncc5)cc4)CC3)C2)c1 (stereo partly drawn) [Compound 408, 3-((2S)-2-hydroxy-3-(8-(4-(pyridin-4-yl)phenylsulfonyl)-1-oxa-8-azaspiro[4.5]decan-3-ylamino)propoxy)-N-methylbenzenesulfonamide] | 39.1 nM |
| CNS(=O)(=O)c1cccc(OC[C@@H](O)CNC2COC3(CCN(S(=O)(=O)c4cccc(-c5nn[nH]n5)c4)CC3)C2)c1 (stereo partly drawn) [Compound 409, 3-((2S)-3-(8-(3-(2H-tetrazol-5-yl)phenylsulfonyl)-1-oxa-8-azaspiro[4.5]decan-3-ylamino)-2-hydroxypropoxy)-N-methylbenzenesulfonamide] | 180 nM |
| CNS(=O)(=O)c1cccc(OC[C@@H](O)CNC2COC3(CCN(S(=O)(=O)c4ccc(-c5nn[nH]n5)cc4)CC3)C2)c1 (stereo partly drawn) [Compound 410, 3-((2S)-3-(8-(4-(2H-tetrazol-5-yl)phenylsulfonyl)-1-oxa-8-azaspiro[4.5]decan-3-ylamino)-2-hydroxypropoxy)-N-methylbenzenesulfonamide] | 389 nM |

Results, then the compound that gave them:

| IC50 | SMILES |
| --- | --- |
| 30.3 nM | CNS(=O)(=O)c1cccc(OC[C@@H](O)CNC2COC3(CCN(S(=O)(=O)c4ccc(OC)nc4)CC3)C2)c1 (stereo partly drawn) [Compound 396, 3-((2S)-2-hydroxy-3-(8-(6-methoxypyridin-3-ylsulfonyl)-1-oxa-8-azaspiro[4.5]decan-3-ylamino)propoxy)-N-methylbenzenesulfonamide] |
| 20.2 nM | CNS(=O)(=O)c1cccc(OC[C@@H](O)CNC2COC3(CCN(S(=O)(=O)c4cnc5c(c4)N(C)CCO5)CC3)C2)c1 (stereo partly drawn) [Compound 399, 3-((2S)-2-hydroxy-3-(8-(1-methyl-2,3-dihydro-1H-pyrido[2,3-b][1,4]oxazin-7-ylsulfonyl)-1-oxa-8-azaspiro[4.5]decan-3-ylamino)propoxy)-N-methylbenzenesulfonamide] |
| 25.3 nM | CCOc1nc2c(cc1S(=O)(=O)N1CCC3(CC1)CC(NC[C@H](O)COc1cccc(S(=O)(=O)NC)c1)CO3)N(C)CCO2 (stereo partly drawn) [Compound 401, 3-((2S)-3-(8-(6-ethoxy-1-methyl-2,3-dihydro-1H-pyrido[2,3-b][1,4]oxazin-7-ylsulfonyl)-1-oxa-8-azaspiro[4.5]decan-3-ylamino)-2-hydroxypropoxy)-N-methylbenzenesulfonamide] |
| 20.4 nM | CNS(=O)(=O)c1cccc(OC[C@@H](O)CNC2COC3(CCN(S(=O)(=O)c4ccc(-c5ccccn5)cc4)CC3)C2)c1 (stereo partly drawn) [Compound 402, 3-((2S)-2-hydroxy-3-(8-(4-(pyridin-2-yl)phenylsulfonyl)-1-oxa-8-azaspiro[4.5]decan-3-ylamino)propoxy)-N-methylbenzenesulfonamide] |
| 13 nM | CCOc1ccc(-c2ccc(CN)cc2)cc1S(=O)(=O)N1CCC2(CC1)CC(NC[C@H](O)COc1cccc(S(=O)(=O)NC)c1)CO2 (stereo partly drawn) [Compound 404, 3-((2S)-3-(8-(4′-(aminomethyl)-4-ethoxybiphenyl-3-ylsulfonyl)-1-oxa-8-azaspiro[4.5]decan-3-ylamino)-2-hydroxypropoxy)-N-methylbenzenesulfonamide] |
| 23 nM | CNS(=O)(=O)c1cccc(OC[C@@H](O)CNC2COC3(CCN(S(=O)(=O)c4ccc(-c5cccnc5)cc4)CC3)C2)c1 (stereo partly drawn) [Compound 407, 3-((2S)-2-hydroxy-3-(8-(4-(pyridin-3-yl)phenylsulfonyl)-1-oxa-8-azaspiro[4.5]decan-3-ylamino)propoxy)-N-methylbenzenesulfonamide] |
| 9.84 nM | CNS(=O)(=O)c1cccc(OC[C@@H](O)CNC2COC3(CCN(S(=O)(=O)c4cc(-c5ccc(CN)cc5)ccc4OC(F)(F)F)CC3)C2)c1 (stereo partly drawn) [Compound 411, 3-((2S)-3-(8-(4′-(aminomethyl)-4-(trifluoromethoxy)biphenyl-3-ylsulfonyl)-1-oxa-8-azaspiro[4.5]decan-3-ylamino)-2-hydroxypropoxy)-N-methylbenzenesulfonamide] |
